{"source": "patent US20140335172A1", "about": "“OPHTHALMOLOGICAL RINSING AGENT AND METHODS THEREFOF” (priority 2013, published 2014)", "key": {"[1]": {"details": "cited from earlier work"}, "[2]": {"details": "cited from earlier work", "remark": "listed apart in the source"}, "[3]": {"details": "cited from earlier work; for Specific Gravity, at 25° C.: silicone oil grade given by kinematic viscosity, cSt"}, "[4]": {"details": "cited from earlier work", "remark": "listed apart in the source"}, "[5]": {"assay": "Relative efficacy ranking of oil solvents", "details": "relative rank, 1 = most efficient"}, "[6]": {"details": "cited from earlier work; for Kinematic Viscosity (Sticky**): Table 2"}, "[7]": {"assay": "Relative volatility ranking of oil solvents", "format": "physicochemical", "details": "relative rank, 1 = most volatile"}, "[8]": {"system": "rMC-1 cells", "assay": "MTS cell viability, rMC-1, 1 hr incubation", "format": "cell-based", "details": "rMC-1 Müller cells, n=3", "description": "The innermost cell layer of the retina is called the retinal ganglion cell layer. It consists mainly of retinal ganglion cells, with some Müller cells and also some blood capillaries. This cell layer is located closest to the vitreous anatomically and thus is almost in direct contact with the rinsing agent in this study. Therefore, a retinal ganglion cell line (RGC-5) and a rat Müller cell line were used in this in-vitro cell culture study to evaluate the biocompatibility of the rinsing agent in accordance with at least one embodiment of this application."}, "[9]": {"assay": "Relative cell proliferation ranking of oil solvents", "format": "cell-based", "details": "relative rank, 1 = most proliferative"}, "[10]": {"assay": "Relative cell toxicity ranking of oil solvents", "format": "cell-based", "design": "key: 1 = most efficient/toxic/proliferative/volatile", "details": "relative rank, 1 = most toxic"}, "[11]": {"system": "RGC-5", "details": "RGC-5, 30 minutes, n=3", "experimental": "In the study, CellTiter 96® AQueous non-radioactive cell proliferation assay (MTS) and Cytotoxicity Detection Kit (LDH assay) were used to test for the cell viability and cell death of the RGC-5 and rMC-1 cells after incubation with the rinsing agent (FIG. 17). The major component of the rinsing agent is octamethyltrisiloxane (1.0 cSt Silicone Oil [SO]) with hydrophobic surfactant DC749 (Dow Corning). Rinsing agents with different concentration of DC749 (0%, 5%, 10% in vol.) were included. The incubation time was designed as 1 hr because the proposed use of the rinsing agent would not be longer than 15 mins in-vivo and therefore a 1 hr study would be more than sufficient in deciding the effect of the proposed rinsing agent on the cells in the eye cavity. Hank's Balanced salt solution (HBSS) was used as the experimental control. Two liquids, perfluorodecalin (PFD) and F6H8, were also included in this study. PFD is a widely accepted short-term used intraoperative adjunct for flattening the folded retina during retinal surgery. F6H8 is a key component of Heavy Silicone Oil (HSO), which has been used as a long-term intraocular tamponade.\nIn a study similar to 6.4 above, the cell viability and the percentage cell death of RGC-5 were investigated in a 30-minute experiment."}, "[12]": {"details": "at 25 ° C., Table 4 surfactants"}, "[13]": {"details": "silicone oil grade given by kinematic viscosity, cSt"}}, "note": "Where two headings read alike, the source gives them in different places."}
{"smiles": "C[Si]1(C)O[Si](C)(C)O[Si](C)(C)O[Si](C)(C)O[Si](C)(C)O1", "note": "[Decamethylcyclopentasiloxane]", "values": [{"measurement": "Henry's Law Constant, Pa m^3/mol at 25° C.", "setting": "[1]", "value": "3,342,000 Pa m^3/mol"}, {"measurement": "Vapor Pressure, Pa at 25° C.", "setting": "[2]", "value": 33.2, "unit": "Pa"}, {"measurement": "Density (g/cm^3) at 25° C.", "setting": "[3]; [12]", "value": 0.954, "unit": "g/mL"}]}
{"smiles": "C[Si]1(C)O[Si](C)(C)O[Si](C)(C)O[Si](C)(C)O[Si](C)(C)O[Si](C)(C)O1", "note": "[Dodecamethylcyclobexasiloxane]", "values": [{"measurement": "Henry's Law Constant, Pa m^3/mol at 25° C.", "setting": "[1]", "value": "14,667 Pa m^3/mol"}, {"measurement": "Vapor Pressure, Pa at 25° C.", "setting": "[2]", "value": 4.6, "unit": "Pa"}, {"measurement": "Density (g/cm^3) at 25° C.", "setting": "[3]; [12]", "value": 0.963, "unit": "g/mL"}]}
{"smiles": "CCCCCC(F)(F)C(F)(F)C(F)(F)C(F)(F)F", "note": "[F4H5]", "values": [{"measurement": "Surface Tension (mN/m)", "setting": "[4]; Table 3", "value": 17.43, "unit": "mN/m"}, {"measurement": "Efficacy", "setting": "[5]", "value": 2}, {"measurement": "Kinematic Viscosity (Sticky**)", "setting": "[6]", "value": 1.05, "unit": "cSt"}, {"measurement": "Dynamic Viscosity (mPa · s) at 25° C.", "setting": "[6]", "value": 1.05, "unit": "mPa · s"}, {"measurement": "Vapor Pressure (Torr)", "setting": "[2]; 37° C.", "value": "25.1 (37° C.) Torr"}, {"measurement": "Density (g/cm^3) at 25° C.", "setting": "[3]; at 25° C., Table 3", "value": 1.284, "unit": "g/mL"}, {"measurement": "Volatility", "setting": "[7]", "value": 2}]}
{"smiles": "CCCCCCC(F)(F)C(F)(F)C(F)(F)C(F)(F)C(F)(F)C(F)(F)F", "note": "[F6H6]", "values": [{"measurement": "Surface Tension (mN/m)", "setting": "[4]; Table 3", "value": 20.0, "unit": "mN/m"}, {"measurement": "Dynamic Viscosity (mPa · s) at 25° C.", "setting": "[6]", "value": 2.38, "unit": "mPa · s"}, {"measurement": "Vapor Pressure (Torr)", "setting": "[2]; 25° C.", "value": "<1 (25° C.) Torr"}, {"measurement": "Density (g/cm^3) at 25° C.", "setting": "[3]; at 25° C., Table 3", "value": 1.386, "unit": "g/mL"}]}
{"smiles": "CCCCCCCCC(F)(F)C(F)(F)C(F)(F)C(F)(F)C(F)(F)C(F)(F)F", "note": "[F6H8]", "values": [{"measurement": "Surface Tension (mN/m)", "setting": "[4]; Table 3", "value": 19.65, "unit": "mN/m"}, {"measurement": "cell viability relative to HBSS, MTS assay", "setting": "[8]", "value": "significant decrease in cell viability"}, {"measurement": "Efficacy", "setting": "[5]", "value": 3}, {"measurement": "Kinematic Viscosity (Sticky**)", "setting": "[6]", "value": 3.44, "unit": "cSt"}, {"measurement": "Dynamic Viscosity (mPa · s) at 25° C.", "setting": "[6]", "value": 3.44, "unit": "mPa · s"}, {"measurement": "Vapor Pressure (Torr)", "setting": "[2]; 25° C.", "value": "<1 (25° C.) Torr"}, {"measurement": "Density (g/cm^3) at 25° C.", "setting": "[3]; at 25° C., Table 3", "value": 1.331, "unit": "g/mL"}, {"measurement": "Cell proliferation", "setting": "[9]", "value": 2}, {"measurement": "Cell toxicity", "setting": "[10]", "value": 2}, {"measurement": "Volatility", "setting": "[7]", "value": 3}]}
{"smiles": "CCCCCCCCCCCCC(F)(F)C(F)(F)C(F)(F)C(F)(F)C(F)(F)C(F)(F)F", "note": "[F6H12]", "values": [{"measurement": "Surface Tension (mN/m)", "setting": "[4]; Table 3", "value": 21.1, "unit": "mN/m"}, {"measurement": "Dynamic Viscosity (mPa · s) at 25° C.", "setting": "[6]", "value": 6.99, "unit": "mPa · s"}, {"measurement": "Density (g/cm^3) at 25° C.", "setting": "[3]; at 25° C., Table 3", "value": 1.25, "unit": "g/mL"}]}
{"smiles": "O", "note": "[H2O]", "values": [{"measurement": "Surface Tension (mN/m)", "setting": "[4]; Table 3", "value": 72, "unit": "mN/m"}, {"measurement": "Dynamic Viscosity (mPa · s) at 25° C.", "setting": "[6]", "value": 0.89, "unit": "mPa · s"}, {"measurement": "Vapor Pressure (Torr)", "setting": "[2]; 37° C.", "value": "46.9 (37° C.) Torr"}, {"measurement": "Density (g/cm^3) at 25° C.", "setting": "[3]; at 25° C., Table 3", "value": 0.970, "unit": "g/mL"}]}
{"smiles": "C[Si](C)(C)O[Si](C)(C)C", "note": "[Hexamethyldisiloxane]", "values": [{"measurement": "Surface Tension (mN/m)", "setting": "[4]; Table 3", "value": 15.9, "unit": "mN/m"}, {"measurement": "Surface Tension (mN/m)", "setting": "[4]; [13]", "value": 15.9, "unit": "mN/m"}, {"measurement": "Dynamic Viscosity (mPa · s) at 25° C.", "setting": "[6]", "value": 0.65, "unit": "mPa · s"}, {"measurement": "Vapor Pressure (Torr)", "setting": "[2]; 37° C.", "value": "42.2 (37° C.) Torr"}, {"measurement": "Density", "setting": "[3]; 20° C., Table 3", "value": 0.764, "unit": "g/mL"}, {"measurement": "Specific Gravity, at 25° C.", "setting": "[3]; at 25° C.", "value": 0.760}, {"measurement": "cell viability relative to HBSS, MTS assay", "setting": "[11]; listed as 0.65 mPa·s SO", "value": "significant decrease of cell viability"}, {"measurement": "cell viability relative to HBSS, MTS assay", "setting": "[11]; listed as LMW-SO 0.65 mPa·s", "value": "reducing the metabolism"}]}
{"smiles": "C[Si]1(C)O[Si](C)(C)O[Si](C)(C)O[Si](C)(C)O1", "note": "[Octamethylcyclotetrasiloxane]", "values": [{"measurement": "Henry's Law Constant, Pa m^3/mol at 25° C.", "setting": "[1]", "value": "1,214,000 Pa m^3/mol"}, {"measurement": "Vapor Pressure, Pa at 25° C.", "setting": "[2]", "value": 132, "unit": "Pa"}, {"measurement": "Density (g/cm^3) at 25° C.", "setting": "[3]; [12]", "value": 0.95, "unit": "g/mL"}]}
{"smiles": "C[Si](C)(C)O[Si](C)(C)O[Si](C)(C)C", "note": "[Octamethyltrisiloxane]", "values": [{"measurement": "Surface Tension (mN/m)", "setting": "[4]; Table 3", "value": 17.4, "unit": "mN/m"}, {"measurement": "Surface Tension (mN/m)", "setting": "[4]; [13]", "value": 17.4, "unit": "mN/m"}, {"measurement": "Dynamic Viscosity (mPa · s) at 25° C.", "setting": "[6]", "value": 1.0, "unit": "mPa · s"}, {"measurement": "Vapor Pressure (Torr)", "setting": "[2]; 25° C.", "value": "4 (25° C.) Torr"}, {"measurement": "Density (g/cm^3) at 25° C.", "setting": "[3]; at 25° C., Table 3", "value": 0.818, "unit": "g/mL"}, {"measurement": "Specific Gravity, at 25° C.", "setting": "[3]; at 25° C.", "value": 0.816}]}
{"smiles": "FC(F)(F)C(F)(F)C(F)(F)C(F)(F)C(F)(F)C(F)(F)C(F)(F)C(F)(F)Br", "note": "[PFOB]", "values": [{"measurement": "Surface Tension (mN/m)", "setting": "[4]; Table 3", "value": 18, "unit": "mN/m"}, {"measurement": "Efficacy", "setting": "[5]", "value": 3}, {"measurement": "Kinematic Viscosity (Sticky**)", "setting": "[6]", "value": 1.93, "unit": "cSt"}, {"measurement": "Dynamic Viscosity (mPa · s) at 25° C.", "setting": "[6]", "value": 1.93, "unit": "mPa · s"}, {"measurement": "Vapor Pressure (Torr)", "setting": "[2]; 37° C.", "value": "10.5 (37° C.) Torr"}, {"measurement": "Density (g/cm^3) at 25° C.", "setting": "[3]; at 25° C., Table 3", "value": 1.930, "unit": "g/mL"}, {"measurement": "Cell proliferation", "setting": "[9]", "value": 3}, {"measurement": "Cell toxicity", "setting": "[10]", "value": 1}, {"measurement": "Volatility", "setting": "[7]", "value": 4}]}
